In US20080050444A1, “Pharmaceutical compositions of ilaparazole” (priority 2005, published 2008):

Legend:
[1] = Particle size distribution of ilaprazole lots (Sympatec HELOS, low-angle laser light scattering); assay type: physicochemical; conditions: nitrogen pressure 2 bar
Description: The two lots of ilaprazole active ingredient were analyzed using a Sympatec HELOS particle size system with a RODOS dry powder disperser. This instrument operates using low-angle laser light scattering analyzed by Fraunhofer diffraction theory. Aliquots of approximately 0.5 g were fed into the instrument from a vibrating tray into a jet of nitrogen gas. After flowing through an interaction tube, an aerosol was formed in the path of a laser beam. The angle and intensity of diffracted light was then measured to determine the particle size distribution. As part of the method development, the particle size distribution was measured as a function of nitrogen gas pressure, and a pressure of 2 bar was determined to adequately break apart loosely adhered particles without significant milling of the sample. The results are shown below in Table 1 and in FIG. 1. The particle sizes are listed as x10, x50 and x90, the diameter where 10%, 50% and 90% of the volume of the material is in a particle smaller than the listed size.

[2] = acid or neutral conditions; known in the art; cited from earlier work

| x10 Mean ([1]; diameter where 10% of the volume of the material is in a particle smaller than the listed size) | x50 Mean ([1]; diameter where 50% of the volume of the material is in a particle smaller than the listed size) | x90 Mean ([1]; diameter where 90% of the volume of the material is in a particle smaller than the listed size) | Compound | stability [2] |
| --- | --- | --- | --- | --- |
| 1.01 μm | 3.74 μm | 14.79 μm | COc1ccnc(C[S+]([O-])c2nc3cc(-n4cccc4)ccc3[nH]2)c1C (stereo not shown) [Lot A, ilaprazole] | – |
| – | – | – | COc1ccnc(C[S+]([O-])c2nc3cc(-n4cccc4)ccc3[nH]2)c1C (stereo not shown) [ilaprazole, 2-[[(4-methoxy-3-methyl)-2-pyridyl]methylsufinyl]-5-(1H-pyrrol-1-yl)benzimidazole] | unstable under acid or neutral conditions |
